Laboratory results taken from patent publication US9464064B2, “HCV helicase inhibitors and methods of use thereof” (University of Kansas, priority 2011, dated 2016).
Like-named read-outs stand apart in the source and are kept apart here.

Legend:
[1] = molecular target: T1, HCV NS3 helicase NS3h_1b(con1) (Hepatitis C virus genotype 1b, UniProt Q9WMX2); experiment: biochemical; assay type: biochemical, hepatitis C virus genotype 1b(con1)
T1 construct: truncated C-terminally His-tagged NS3 proteins lacking the N-terminal protease, called NS3h; His-tag (C); made in house
Procedure, shortened: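 Molecular beacon helicase assay with His-tagged recombinant NS3 and a Cy5/IBRQ-labelled partially duplex DNA substrate (25 bp) or Tye665-labelled RNA substrate (19 bp). Reactions started with 1 mM ATP. Screening read fluorescence before and 30 min after ATP (ex 643/em 670 nm). For IC50, 5% v/v DMSO was present, initial velocities came from first-order decay fits, and a Hill equation was applied.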

[2] = test system: HCV RLuc subgenomic replicon (genotype 1b) in Huh-7.5 cells; experiment: HCV subgenomic replicon assay (Renilla luciferase); assay type: cell-based, hepatitis C virus; conditions: Hepatitis C virus
Excerpt: An HCV Renilla luciferase reporter construct (HCV RLuc; Huang, et al. (2006) Hepatology 43:81-90) was used to measure the effect of each compound on cellular HCV RNA levels. In HCV RLuc, the HCV internal ribosome entry site (IRES) drives the translation of the neomycin and Renilla luciferase genes while the HCV nonstructural proteins (NS3 to NS5B) are translated from the Encephalomyocarditis virus IRES (Huang, et al. (2006) supra). The plasmid DNA was cleaved with ScaI, purified by phenol/chloroform extraction followed by ethanol precipitation, and used as template for RNA transcription using […] T7 RNA transcription kit (Ambion, Austin, Tex.). The RNA transcripts were treated with 2 U DNase I (Ambion) at 37° C. for 30 minutes, purified by acid phenol/chloroform extraction, followed by isopropanol precipitation, and suspended in diethylpyrocarbonate-treated water. RNA concentration was determined by spectrophotometry by measuring the A260. RNA integrity and size was checked on 1% agarose gel. Transcribed RNA was stored in aliquots at −80° C. until needed.
Huh-7.5 cells were transfected with HCV RNA by electroporation. Briefly, subconfluent Huh7.5 cells were trypsinized, suspended in complete growth medium, and centrifuged at 1,000×g for 5 minutes at 4° C. The cell pellets were then washed twice with ice-cold phosphate-buffered saline (PBS) and suspended at 1.75×10^7 cells/mL in ice-cold PBS. Replicon RNA (5 μg) was mixed with 0.4 mL of cell suspension and transferred to 2 mm gap width electroporation cuvette (EPPENDORF AG, Germany) and pulsed 5 times for 99 μsec at 820 V over 1.1 sec intervals using the ECM 830 electroporator instrument (BTX Harvard Apparatus, Holliston, Mass.). After a 5 minute recovery period at room temperature, cells were transferred to 10 ml complete growth medium, and seeded into 10 cm diameter cell culture dishes. Twenty-four hours after transfection, the medium was replaced with fresh complete DMEM supplemented with 1 mg/ml geneticin (Invitrogen) and the medium was replaced every three to four days with fresh medium containing 1 mg/mL geneticin. Geneticin-resistant colonies were selected for a period of two weeks and expanded in the presence of 250 μg/mL geneticin.
HCV RLuc replicon cells were seeded at a density of 10×10^3 cells per well in 96-well plates and incubated for 4-5 hours to allow the cells to attach to the plate. The compounds dissolved in dimethyl sulfoxide (DMSO) were added at a final concentration of 10 μM (DMSO solvent final concentration was 0.5%) and the cells were incubated for 72 hours at 37° C. under 5% CO2 atmosphere. The effects of compounds on HCV replication were then assessed by measuring the Renilla luciferase activity in compound-treated versus DMSO-treated cells. At the end of the incubation period, the medium was aspirated and the cells were washed with 1×PBS. The Renilla luciferase reporter gene assay was performed using the Renilla luciferase assay kit (PROMEGA, Madison, Wis.) according to the manufacturer's instructions. Briefly, the cells were lysed by addition of 50 μL of 1× Renilla luciferase lysis buffer followed by two cycles of freeze/thaw. The luciferase activity content of the lysate was measured with a FLUOSTAR Omega microplate reader instrument (BMG Labtech, Germany) after injecting 50 μL of luciferase substrate and reading for 5 seconds.
To determine if the above identified compounds might be useful as HCV antiviral agents, they were added to cells harboring HCV subgenomic RNA replicon. The HCV replicon chosen was derived from the same HCV strain (genotype 1b) as the NS3 protein used for screening and enzyme assays. […] 75:4614-4624; Blight, et al. (2002) J. Virol. 76:13001-13014). […]

[3] = MBHA, DNA unwinding, mean ± SD of three titrations, read-out: Helicase IC50
[4] = genotype 1b (con1), read-out: Target Potency MBHA (IC50 avg., μM) 1b (con1)
[5] = standard HCV helicase MBHA (Table 9), read-out: DNA Unwinding IC50
[6] = Huh7.5, 10 μM compound, triplicate, average ± SD, read-out: HCV replication (% Inh.)
[7] = Huh7.5, 10 μM, read-out: Replicon (% Inhibition @ 10 μM)
[8] = DNA-based MBHA, genotype 1b, read-out: DNA Helicase NS3h_1b IC50 (μM) ± SD

T1 sequence (Q9WMX2 1192-1657): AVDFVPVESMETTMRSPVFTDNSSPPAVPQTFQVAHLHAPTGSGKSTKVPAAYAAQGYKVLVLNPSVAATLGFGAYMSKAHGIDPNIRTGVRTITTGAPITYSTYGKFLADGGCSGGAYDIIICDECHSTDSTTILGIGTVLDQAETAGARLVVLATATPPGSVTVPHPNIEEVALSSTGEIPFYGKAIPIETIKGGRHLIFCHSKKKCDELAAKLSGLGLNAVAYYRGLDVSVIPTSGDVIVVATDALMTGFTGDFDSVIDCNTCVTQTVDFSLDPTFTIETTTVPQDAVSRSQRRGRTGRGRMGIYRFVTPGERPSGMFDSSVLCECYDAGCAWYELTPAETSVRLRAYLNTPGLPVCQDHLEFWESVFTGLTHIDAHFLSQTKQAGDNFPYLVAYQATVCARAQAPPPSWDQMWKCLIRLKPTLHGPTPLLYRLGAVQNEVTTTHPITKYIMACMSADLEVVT

Row | SMILES | IC50 [1, 3] [µM] | IC50 [1, 4] [µM] | IC50 [1, 5] [µM] | inhibition at 10 µM [2, 6] [%] | inhibition at 10 µM [2, 7] [%] | IC50 [1, 8] [µM]
1 | COC(=O)c1ccc(C(=O)Nc2ccc(-c3nc4ccc(-c5nc6ccc(C)c(S(=O)(=O)O)c6s5)cc4s3)cc2)cc1 [Compound 9, 2′-(4-(4-(methoxycarbonyl)benzamido)phenyl)-6-methyl-[2,6′-bibenzo[d]thiazole]-7-sulfonic acid] | 9.7 ± 4.6 | 9.7 ± 4.6 | 10 ± 5 | 40 ± 1 | 40 ± 1 | –
2 | Cc1ccc2nc(-c3ccc4nc(-c5ccc(NC(=O)c6ccc(NC(=O)OCC7c8ccccc8-c8ccccc87)cc6)cc5)sc4c3)sc2c1S(=O)(=O)O [Compound 16, 2′-(4-(4-((((9H-fluoren-9-yl)methoxy)carbonyl)amino)benzamido)phenyl)-6-methyl-[2,6′-bibenzo[d]thiazole]-7-sulfonic acid] | 5.4 ± 1 | 5.4 ± 1 | 5 ± 1 | 57 ± 21 | 57 ± 21 | –
3 | Cc1ccc2nc(-c3ccc4nc(-c5ccc(NC(=O)c6ccc7nc(-c8ccc(N)cc8)sc7c6)cc5)sc4c3)sc2c1S(=O)(=O)O [Compound 35, 2′-(4-(2-(4-aminophenyl)benzo[d]thiazole-6-carboxamido)phenyl)-6-methyl-[2,6′-bibenzo[d]thiazole]-7-sulfonic acid] | 5.5 ± 2.1 | 5.5 ± 2.1 | 6 ± 2 | 37 ± 4 | 37 ± 4 | 6 ± 2.1
4 | Cc1ccc(NC(=O)Nc2ccc(-c3nc4ccc(-c5nc6ccc(C)c(S(=O)(=O)O)c6s5)cc4s3)cc2)cc1 [Compound 28, 6-methyl-2′-(4-(3-(p-tolyl)ureido)phenyl)-[2,6′-bibenzo[d]thiazole]-7-sulfonic acid] | 5.3 ± 0.9 | 5.3 ± 0.9 | 5 ± 1 | 43 ± 9 | 43 ± 9 | –
5 | Cc1ccc2nc(-c3ccc4nc(-c5ccc(NC(=O)Nc6ccc(Cl)cc6)cc5)sc4c3)sc2c1S(=O)(=O)O [Compound 54] | – | 3.6 ± 0.9 | 4 ± 1 | – | 35 ± 28 | –
6 | Cc1ccc2nc(-c3ccc4nc(-c5ccc(NC(=S)Nc6ccccc6)cc5)sc4c3)sc2c1S(=O)(=O)O.N [Compound 50] | – | 9.3 ± 3.8 | 9 ± 4 | – | 9 ± 9 | –
7 | Cc1ccc2nc(-c3ccc(NC(=O)c4ccc(NC(=O)c5ccc(N)cc5)cc4)cc3)sc2c1S(=O)(=O)O.N [Compound 46] | – | 30 ± 3.8 | 29 ± 4 | – | -42 ± 26 | –
8 | Cc1ccc2nc(-c3ccc4nc(-c5ccc(NC(=O)c6cccc(C(F)(F)F)c6)cc5)sc4c3)sc2c1S(=O)(=O)O [Compound 20, 6-methyl-2′-(4-(3-(trifluoromethyl)benzamido)phenyl)-[2,6′-bibenzo[d]thiazole]-7-sulfonic acid] | 20 ± 12 | 19.7 ± 12 | – | 41 ± 8 | 41 ± 8 | –
9 | Cc1ccc2nc(-c3ccc(NC(=O)c4ccc(NC(=O)OCC5c6ccccc6-c6ccccc65)cc4)cc3)sc2c1S(=O)(=O)O.N [Compound 42] | – | 12 ± 3.7 | 12 ± 4 | – | 31 ± 10 | –
10 | Cc1ccc(C(=O)Nc2ccc(-c3nc4ccc(-c5nc6ccc(C)c(S(=O)(=O)O)c6s5)cc4s3)cc2)cc1 [Compound 11, 6-methyl-2′-(4-(4-methylbenzamido)phenyl)-[2,6′-bibenzo[d]thiazole]-7-sulfonic acid] | 3.3 ± 0.3 | 3.3 ± 0.3 | 3 | 52 ± 12 | 52 ± 12 | –
11 | Cc1ccc2nc(-c3ccc(NC(=O)c4ccc(NC(=O)c5ccccc5)cc4)cc3)sc2c1S(=O)(=O)O.N [Compound 40] | – | 81.4 ± 22 | 81 ± 22 | – | -19 ± 42 | –
12 | Cc1ccc2nc(-c3ccc4nc(-c5ccc(NC(=O)c6c(F)cccc6C(F)(F)F)cc5)sc4c3)sc2c1S(=O)(=O)O [Compound 21, 2′-(4-(2-fluoro-6-(trifluoromethyl)benzamido)phenyl)-6-methyl-[2,6′-bibenzo[d]thiazole]-7-sulfonic acid] | 17 ± 6 | 16.8 ± 6 | 17 ± 6 | 55 ± 7 | 55 ± 7 | –
13 | Cc1ccc2nc(-c3ccc4nc(-c5ccc(NC(=O)Nc6ccc(F)cc6)cc5)sc4c3)sc2c1S(=O)(=O)O.N [Compound 48] | – | 7.8 ± 2.2 | 8 ± 2 | – | 17 ± 25 | –
14 | Cc1ccc2nc(-c3ccc4nc(-c5ccc(NC(=O)Nc6ccc(C(F)(F)F)cc6)cc5)sc4c3)sc2c1S(=O)(=O)O.N [Compound 47] | – | 5.1 ± 3.3 | 5 ± 3 | – | 7 ± 39 | –
15 | Cc1ccc2nc(-c3ccc(NC(=O)c4ccc(NC(=O)Nc5ccccc5)cc4)cc3)sc2c1S(=O)(=O)O.N [Compound 45] | – | 44 ± 12 | 44 ± 12 | – | -64 ± 90 | –
16 | Cc1ccc2nc(-c3ccc4nc(-c5ccc(NC(=O)c6cccc(Cl)c6)cc5)sc4c3)sc2c1S(=O)(=O)O [Compound 17, 2′-(4-(3-chlorobenzamido)phenyl)-6-methyl-[2,6′-bibenzo[d]thiazole]-7-sulfonic acid] | 2.6 ± 1 | 2.6 ± 1 | 3 ± 1 | 54 ± 10 | 54 ± 10 | 3 ± 0.8
17 | Cc1ccc2nc(-c3ccc4nc(-c5ccc(NC(=O)c6cccc7ccccc67)cc5)sc4c3)sc2c1S(=O)(=O)O.N [Compound 49] | – | 4.5 ± 0.4 | 5 | – | -9 ± 8 | –
18 | Cc1ccc2nc(-c3ccc4nc(-c5ccc(NC(=O)c6ccccc6)cc5)sc4c3)sc2c1S(=O)(=O)O [Compound 5, 2′-(4-benzamidophenyl)-6-methyl-[2,6′-bibenzo[d]thiazole]-7-sulfonic acid] | 11 ± 1.5 | 10.7 ± 1.5 | 11 ± 2 | 45 ± 5 | 45 ± 5 | –
19 | Cc1ccc2nc(-c3ccc4nc(-c5ccc(NC(=O)c6ccc7ccccc7c6)cc5)sc4c3)sc2c1S(=O)(=O)O [Compound 33, 2′-(4-(2-naphthamido)phenyl)-6-methyl-[2,6′-bibenzo[d]thiazole]-7-sulfonic acid] | 2.7 ± 0.7 | 3.6 | 4 | 61 ± 10 | 21 ± 33 | 3 ± 0.7
20 | Cc1ccc2nc(-c3ccc(NC(=O)c4ccc(NC(=S)Nc5ccccc5)cc4)cc3)sc2c1S(=O)(=O)O.N [Compound 43] | – | 29 ± 6.9 | 29 ± 7 | – | -13 ± 2 | –
21 | Cc1ccc2nc(-c3ccc4nc(-c5ccc(NC(=O)c6cc(C(F)(F)F)ccc6F)cc5)sc4c3)sc2c1S(=O)(=O)O [Compound 25, 2′-(4-(2-fluoro-5-(trifluoromethyl)benzamido)phenyl)-6-methyl-[2,6′-bibenzo[d]thiazole]-7-sulfonic acid] | 6.4 ± 2 | 6.4 ± 2 | 6 ± 2 | 39 ± 4 | 39 ± 4 | 6 ± 1.9
